Results published in paper PMC5421785, “Citrullination only infrequently impacts peptide binding to HLA class II MHC” (PLoS ONE, 2017).
Read-outs that look alike come from different tables or passages of the source. Square brackets hold non-standard residues; d marks the D form. Peptide text beside a SMILES is read from it. Cit = NC(=O)NCCC[C@H](N)C(=O)O

Columns and labels:
[1] = target: T1, HLA-DRB1*01:01 (Homo sapiens, UniProt P01903+P01911, A100R/D57E/F55L/F60I/F76Y/I96L/L162R/M171V/P40L/Q125E/R42F/V115G/Y59C); assay: HLA class II peptide binding, inhibition of radiolabeled peptide binding to purified MHC
T1 construct: EBV transformed homozygous cell lines were used as sources of MHC molecules; endogenous in cells; host or cells: EBV transformed homozygous cell lines

[2] = target: T2, HLA-DRB1*04:01 (Homo sapiens, UniProt P01903+P01911, A100K/A169T/F76Y/I96L/K127E/L162R/M171V/N62H/P40V/Q125Y/R42H/S133A/S149N/S66Y/V115G/V209L/W38E); assay: as above
T2 construct: EBV transformed homozygous cell lines were used as sources of MHC molecules; endogenous in cells; host or cells: EBV transformed homozygous cell lines

[3] = citrullinated 15-mer (X), purified MHC, inhibition of radiolabeled peptide binding, dash = IC50 >40,000 nM, read-out: DRB1*01:01 binding capacity, Cit peptide (IC50 nM)
[4] = citrullinated 15-mer (X), purified MHC, inhibition of radiolabeled peptide binding, dash = IC50 >40,000 nM, read-out: DRB1*04:01 binding capacity, Cit peptide (IC50 nM)
[5] = citrullinated peptide as listed (X at Cit position), read-out: DRB1*01:01 binding capacity Cit peptide (IC50 nM)
[6] = citrullinated peptide as listed (X at Cit position), read-out: DRB1*04:01 binding capacity Cit peptide (IC50 nM)
[7] = citrullinated 15-mer peptide (X = citrulline), purified HLA-DRB1*01:01, read-out: DRB1*01:01 binding capacity, Cit peptide (IC50 nM)
[8] = citrullinated 15-mer peptide (X = citrulline), purified HLA-DRB1*04:01, read-out: DRB1*04:01 binding capacity, Cit peptide (IC50 nM)

## CC(C)C[C@H](NC(=O)[C@@H](N)CO)C(=O)N[C@@H](Cc1ccc(O)cc1)C(=O)N[C@@H](C)C(=O)N[C@@H](CO)C(=O)N[C@@H](CO)C(=O)N1CCC[C@H]1C(=O)NCC(=O)NCC(=O)N[C@H](C(=O)N[C@@H](Cc1ccc(O)cc1)C(=O)N[C@@H](C)C(=O)N[C@H](C(=O)N[C@@H](CCCNC(N)=O)C(=O)N[C@@H](CO)C(=O)O)[C@@H](C)O)C(C)C [SLYASSPGGVYATXS]
[1]; [3]
  IC50: 16 nM
[2]; [4]
  IC50: 1280 nM

## CC[C@H](C)[C@H](NC(=O)[C@H](CCC(=O)O)NC(=O)[C@@H](NC(=O)[C@H](CC(=O)O)NC(=O)[C@H](CC(N)=O)NC(=O)[C@@H](N)CO)C(C)C)C(=O)N[C@@H](CCCNC(=N)N)C(=O)N[C@@H](C)C(=O)N[C@@H](CCC(=O)O)C(=O)NCC(=O)N[C@@H](CC(N)=O)C(=O)N[C@@H](CO)C(=O)N[C@@H](CCCNC(N)=O)C(=O)N[C@@H](Cc1ccccc1)C(=O)N[C@H](C(=O)O)[C@@H](C)O [SNDVEIRAEGNSXFT] (H-SNDVEIRAEGNS[Cit]FT-OH)
[1]; [5]
  IC50: 92 nM
[2]; [6]
  IC50: 178 nM

## CC[C@H](C)[C@H](NC(=O)[C@H](CCC(=O)O)NC(=O)[C@@H](NC(=O)[C@H](CC(=O)O)NC(=O)[C@H](CC(N)=O)NC(=O)[C@@H](N)CO)C(C)C)C(=O)N[C@@H](CCCNC(N)=O)C(=O)N[C@@H](C)C(=O)N[C@@H](CCC(=O)O)C(=O)NCC(=O)N[C@@H](CC(N)=O)C(=O)N[C@@H](CO)C(=O)N[C@@H](CCCNC(=N)N)C(=O)N[C@@H](Cc1ccccc1)C(=O)N[C@H](C(=O)O)[C@@H](C)O [SNDVEIXAEGNSRFT] (H-SNDVEI[Cit]AEGNSRFT-OH)
[1]; [5]
  IC50: 1520 nM
[2]; [6]
  IC50: 929 nM

## CC(C)C[C@H](NC(=O)[C@H](CCCNC(N)=O)NC(=O)[C@@H](NC(=O)[C@H](C)NC(=O)[C@H](CO)NC(=O)[C@H](CO)NC(=O)[C@H](CCCNC(=N)N)NC(=O)[C@@H](NC(=O)[C@H](C)NC(=O)[C@H](Cc1ccc(O)cc1)NC(=O)[C@@H](NC(=O)CNC(=O)CNC(=O)[C@@H]1CCCN1C(=O)[C@@H](N)CO)C(C)C)[C@@H](C)O)C(C)C)C(=O)O [SPGGVYATRSSAVXL] (H-SPGGVYATRSSAV[Cit]L-OH)
[1]; [3]
  IC50: 7.6 nM
[2]; [4]
  IC50: 497 nM

## CC(C)C[C@H](NC(=O)[C@H](CCCNC(=N)N)NC(=O)[C@@H](NC(=O)[C@H](C)NC(=O)[C@H](CO)NC(=O)[C@H](CO)NC(=O)[C@H](CCCNC(N)=O)NC(=O)[C@@H](NC(=O)[C@H](C)NC(=O)[C@H](Cc1ccc(O)cc1)NC(=O)[C@@H](NC(=O)CNC(=O)CNC(=O)[C@@H]1CCCN1C(=O)[C@@H](N)CO)C(C)C)[C@@H](C)O)C(C)C)C(=O)O [SPGGVYATXSSAVRL] (H-SPGGVYAT[Cit]SSAVRL-OH)
[1]; [3]
  IC50: 6.6 nM
[2]; [4]
  IC50: 329 nM

## CC(C)C[C@H](NC(=O)[C@H](CO)NC(=O)[C@H](Cc1ccc(O)cc1)NC(=O)[C@@H](NC(=O)[C@H](CCCNC(N)=O)NC(=O)[C@@H](NC(=O)[C@H](CO)NC(=O)[C@@H](NC(=O)[C@@H](NC(=O)[C@@H](NC(=O)[C@H](Cc1ccc(O)cc1)NC(=O)[C@H](CO)NC(=O)[C@H](CCCNC(=N)N)NC(=O)[C@H](CO)NC(=O)[C@@H](N)CO)C(C)C)[C@@H](C)O)[C@@H](C)O)[C@@H](C)O)[C@@H](C)O)C(=O)O [SSRSYVTTSTXTYSL] (H-SSRSYVTTST[Cit]TYSL-OH)
[1]; [3]
  IC50: 85 nM
[2]; [4]
  IC50: 109 nM

## CC(C)C[C@H](NC(=O)[C@H](CO)NC(=O)[C@H](Cc1ccc(O)cc1)NC(=O)[C@@H](NC(=O)[C@H](CCCNC(=N)N)NC(=O)[C@@H](NC(=O)[C@H](CO)NC(=O)[C@@H](NC(=O)[C@@H](NC(=O)[C@@H](NC(=O)[C@H](Cc1ccc(O)cc1)NC(=O)[C@H](CO)NC(=O)[C@H](CCCNC(N)=O)NC(=O)[C@H](CO)NC(=O)[C@@H](N)CO)C(C)C)[C@@H](C)O)[C@@H](C)O)[C@@H](C)O)[C@@H](C)O)C(=O)O [SSXSYVTTSTRTYSL] (H-SS[Cit]SYVTTSTRTYSL-OH)
[1]; [3]
  IC50: 93 nM
[2]; [4]
  IC50: 357 nM

## CC(C)C[C@H](NC(=O)[C@H](CO)NC(=O)[C@H](CCC(N)=O)NC(=O)[C@@H](NC(=O)[C@H](CCC(N)=O)NC(=O)[C@H](CCCNC(N)=O)NC(=O)[C@H](CCCNC(=N)N)NC(=O)[C@H](Cc1ccc(O)cc1)NC(=O)[C@H](CCC(=O)O)NC(=O)[C@@H](NC(=O)[C@@H](N)CO)[C@@H](C)O)C(C)C)C(=O)N[C@H](C(=O)N[C@@H](CS)C(=O)N[C@@H](CCC(=O)O)C(=O)N[C@H](C(=O)O)C(C)C)[C@@H](C)O [STEYRXQVQSLTCEV] (H-STEYR[Cit]QVQSLTCEV-OH)
[1]; [7]
  IC50: 158 nM
[2]; [8]
  IC50: 860 nM

## CC(C)C[C@H](NC(=O)[C@H](CO)NC(=O)[C@H](CCC(N)=O)NC(=O)[C@@H](NC(=O)[C@H](CCC(N)=O)NC(=O)[C@H](CCCNC(=N)N)NC(=O)[C@H](CCCNC(N)=O)NC(=O)[C@H](Cc1ccc(O)cc1)NC(=O)[C@H](CCC(=O)O)NC(=O)[C@@H](NC(=O)[C@@H](N)CO)[C@@H](C)O)C(C)C)C(=O)N[C@H](C(=O)N[C@@H](CS)C(=O)N[C@@H](CCC(=O)O)C(=O)N[C@H](C(=O)O)C(C)C)[C@@H](C)O [STEYXRQVQSLTCEV] (H-STEY[Cit]RQVQSLTCEV-OH)
[1]; [7]
  IC50: 97 nM
[2]; [8]
  IC50: 1510 nM

## CC(C)C[C@H](NC(=O)[C@H](C)NC(=O)[C@H](C)NC(=O)[C@@H](N)[C@@H](C)O)C(=O)N[C@@H](CCCNC(=N)N)C(=O)N[C@@H](CC(=O)O)C(=O)N[C@H](C(=O)N[C@@H](CCCNC(N)=O)C(=O)N[C@@H](CCC(N)=O)C(=O)N[C@@H](CCC(N)=O)C(=O)N[C@@H](Cc1ccc(O)cc1)C(=O)N[C@@H](CCC(=O)O)C(=O)N[C@@H](CO)C(=O)N[C@H](C(=O)N[C@@H](C)C(=O)O)C(C)C)C(C)C [TAALRDVXQQYESVA] (H-TAALRDV[Cit]QQYESVA-OH)
[1]; [3]
  IC50: 896 nM
[2]; [4]
  IC50: 7160 nM

## CC(C)C[C@H](NC(=O)[C@H](C)NC(=O)[C@H](C)NC(=O)[C@@H](N)[C@@H](C)O)C(=O)N[C@@H](CCCNC(N)=O)C(=O)N[C@@H](CC(=O)O)C(=O)N[C@H](C(=O)N[C@@H](CCCNC(=N)N)C(=O)N[C@@H](CCC(N)=O)C(=O)N[C@@H](CCC(N)=O)C(=O)N[C@@H](Cc1ccc(O)cc1)C(=O)N[C@@H](CCC(=O)O)C(=O)N[C@@H](CO)C(=O)N[C@H](C(=O)N[C@@H](C)C(=O)O)C(C)C)C(C)C [TAALXDVRQQYESVA] (H-TAAL[Cit]DVRQQYESVA-OH)
[1]; [3]
  IC50: 956 nM
[2]; [4]
  IC50: 8760 nM

## CC[C@H](C)[C@H](NC(=O)[C@H](CC(N)=O)NC(=O)[C@H](CCC(N)=O)NC(=O)[C@H](CO)NC(=O)CNC(=O)[C@H](CCC(=O)O)NC(=O)[C@@H](NC(=O)[C@H](CO)NC(=O)[C@H](CC(C)C)NC(=O)[C@H](CC(C)C)NC(=O)[C@H](CCCNC(N)=O)NC(=O)[C@H](CC(C)C)NC(=O)[C@H](Cc1ccccc1)NC(=O)[C@@H](N)[C@@H](C)O)[C@@H](C)O)C(=O)N[C@H](C(=O)O)[C@@H](C)O [TFLXLLSTEGSQNIT] (H-TFL[Cit]LLSTEGSQNIT-OH)
[1]; [5]
  IC50: 5.6 nM
[2]; [6]
  IC50: 55 nM

## CC(C)[C@H](NC(=O)[C@H](CCCNC(N)=O)NC(=O)CNC(=O)[C@H](C)NC(=O)[C@H](C)NC(=O)CNC(=O)[C@@H]1CCCN1C(=O)[C@H](Cc1ccccc1)NC(=O)CNC(=O)[C@@H](N)[C@@H](C)O)C(=O)NCC(=O)N1CCC[C@H]1C(=O)N1CCC[C@H]1C(=O)NCC(=O)N[C@@H](CO)C(=O)O [TGFPGAAGXVGPPGS] (H-TGFPGAAG[Cit]VGPPGS-OH)
[1]; [7]
  IC50: 3470 nM
[2]; [8]
  IC50: > 40000 nM

## C[C@H](NC(=O)CNC(=O)[C@@H]1CCCN1C(=O)[C@@H]1CCCN1C(=O)CNC(=O)[C@H](CCC(N)=O)NC(=O)[C@H](C)NC(=O)CNC(=O)[C@H](CCCNC(N)=O)NC(=O)[C@H](C)NC(=O)CNC(=O)[C@H](CCCCN)NC(=O)[C@@H]1CCCN1C(=O)CNC(=O)[C@@H](N)[C@@H](C)O)C(=O)O [TGPKGAXGAQGPPGA] (H-TGPKGA[Cit]GAQGPPGA-OH)
[1]; [7]
  IC50: 2690 nM
[2]; [8]
  IC50: > 40000 nM

## CC[C@H](C)[C@H](NC(=O)[C@H](CC(C)C)NC(=O)[C@H](CC(C)C)NC(=O)[C@@H](NC(=O)[C@H](CCCNC(=N)N)NC(=O)[C@H](CCCCN)NC(=O)[C@H](CO)NC(=O)[C@H](Cc1c[nH]cn1)NC(=O)[C@@H](N)[C@@H](C)O)[C@@H](C)O)C(=O)N[C@@H](CCCCN)C(=O)N[C@H](C(=O)N[C@H](C(=O)N[C@@H](CCC(=O)O)C(=O)N[C@H](C(=O)N[C@@H](CCCNC(N)=O)C(=O)O)[C@@H](C)O)C(C)C)[C@@H](C)O [THSKRTLLIKTVETX] (H-THSKRTLLIKTVET[Cit]-OH)
[1]; [7]
  IC50: 310 nM
[2]; [8]
  IC50: 6020 nM

## CC[C@H](C)[C@H](NC(=O)[C@H](CC(C)C)NC(=O)[C@H](CC(C)C)NC(=O)[C@@H](NC(=O)[C@H](CCCNC(N)=O)NC(=O)[C@H](CCCCN)NC(=O)[C@H](CO)NC(=O)[C@H](Cc1c[nH]cn1)NC(=O)[C@@H](N)[C@@H](C)O)[C@@H](C)O)C(=O)N[C@@H](CCCCN)C(=O)N[C@H](C(=O)N[C@H](C(=O)N[C@@H](CCC(=O)O)C(=O)N[C@H](C(=O)N[C@@H](CCCNC(=N)N)C(=O)O)[C@@H](C)O)C(C)C)[C@@H](C)O [THSKXTLLIKTVETR] (H-THSK[Cit]TLLIKTVETR-OH)
[1]; [7]
  IC50: 176 nM
[2]; [8]
  IC50: 6430 nM
